# “Also recorded” adds a separate entry of the source.
# What was measured:
# [1] = test system: subject afflicted by tremor or spasticity; test: Example 3: oral laquinimod in treating tremor and spasticity; type: in vivo
# Protocol: A composition comprising laquinimod as described herein is administered to a subject afflicted by tremor. […] A composition comprising laquinimod as described herein is administered to a subject afflicted by tremor. […] A composition comprising laquinimod as described herein is administered to a subject afflicted by spasticity. […] A composition comprising laquinimod as described herein is administered to a subject afflicted by tremor.
# subjects with RRMS = test: ALLEGRO sub-study: MT MRI, magnetization transfer ratio (MTR) of NABT, WM, GM and T2 lesions; type: in vivo, human; details: for Average MTR of T2 lesions, LS mean (SE) change / GM MTR, LS mean (SE) change / NABT MTR, LS mean (SE) change / WM MTR, LS mean (SE) change: 0.6 mg; for Average MTR of T2 lesions, treatment difference (95% CI) / GM MTR, treatment difference (95% CI) / NABT MTR, treatment difference (95% CI) / WM MTR, treatment difference (95% CI): laquinimod 0.6 mg vs placebo
# Protocol: • 1. Frequent MRI (selected countries and sites only): The cumulative number of T1-Gd enhancing lesions taken from scans obtained at months 0, 3, 6, 12, and 24, and in case the study is be extended, 30. Additional MRIs for the ancillary study are performed at months 3 and 6. • 2. Magnetization Transfer (MT) (selected countries and sites only): the change from baseline to month 12 and 24/30 months in magnetization transfer MRI. MT was assessed at months 0 (baseline), 12 and 24 (termination/early discontinuation). In case of the 6 months extended study, the last MT was performed at month 30 (termination/early discontinuation of the extended study) instead of month 24. • 3. Proton MR Spectroscopy (^1H-MRS) (selected countries and sites only): Change from baseline to 24/30 in ^1H-MRS metabolites. ^1H-MRS was assessed at months 0 (baseline), and 24 (termination/early discontinuation). In case of the 6 months extended study, the last ^1H-MRS was performed at month 30 (termination/early discontinuation of the extended study) instead of month 24. • 4. Pharmacogenetic (PGx) assessment: Blood samples for PGx parameters were collected from all subjects at screening. • 5. Brain atrophy, as defined by the percentage of change from one scan to the subsequent scan in brain volume, in addition to the measurements done in the main study (Frequent MRI Cohort). • 6. Whole blood and serum samples (selected countries and sites only) were collected for evaluation of the immunological response to treatment with laquinimod and further investigation of the potential mechanism of action. Whole blood samples were collected at months: 0, 1, 3, 6, 12 and 24. Serum samples were collected at month: 0, 1, 6, 12 and 24 (even if the study is extended to month 30). • 7. Relationship between PGx and response to laquinimod in terms of clinical, MRI and safety parameters. Patients with valid baseline and month 12, and/or month 24 MT MRI assessments were included in the analysis. Least square (LS) mean changes from baseline MTR in NABT, WM, GM and T2-lesions at months 12 and 24, and between months 12 an 24, were evaluated using a MMRM analysis.
compound,measurement,setting,value
CCN(C(=O)c1c(O)c2c(Cl)cccc2n(C)c1=O)c1ccccc1 [Laquinimod],Spasticity in the subject,[1]; subject afflicted by spasticity,effective to inhibit spasticity; also recorded: effective to reduce spasticity
same,Tremor in the subject,[1]; subject afflicted by tremor,effective to inhibit tremor; also recorded: effective to reduce tremor
same,"Average MTR of T2 lesions, LS mean (SE) change",subjects with RRMS; Baseline to Month 12,0.39 (0.25)
same,"GM MTR, LS mean (SE) change",subjects with RRMS; Baseline to Month 12,0.30 (0.13)
same,"NABT MTR, LS mean (SE) change",subjects with RRMS; Baseline to Month 12,0.31 (0.12)
same,"WM MTR, LS mean (SE) change",subjects with RRMS; Baseline to Month 12,0.32 (0.13)
same,"Average MTR of T2 lesions, treatment difference (95% CI)",subjects with RRMS; Baseline to Month 12,"0.38 (−0.26, 1.01) p = 0.239"
same,"GM MTR, treatment difference (95% CI)",subjects with RRMS; Baseline to Month 12,"0.41 (0.08, 0.74) p = 0.014"
same,"NABT MTR, treatment difference (95% CI)",subjects with RRMS; Baseline to Month 12,"0.40 (0.09, 0.71) p = 0.013"
same,"WM MTR, treatment difference (95% CI)",subjects with RRMS; Baseline to Month 12,"0.40 (0.09, 0.72) p = 0.013"
same,"Average MTR of T2 lesions, LS mean (SE) change",subjects with RRMS; Baseline to Month 24,0.46 (0.29)
same,"GM MTR, LS mean (SE) change",subjects with RRMS; Baseline to Month 24,0.14 (0.16)
same,"NABT MTR, LS mean (SE) change",subjects with RRMS; Baseline to Month 24,0.23 (0.15)
same,"WM MTR, LS mean (SE) change",subjects with RRMS; Baseline to Month 24,0.27 (0.16)
same,"Average MTR of T2 lesions, treatment difference (95% CI)",subjects with RRMS; Baseline to Month 24,"0.53 (−0.23, 1.28) p = 0.168"
same,"GM MTR, treatment difference (95% CI)",subjects with RRMS; Baseline to Month 24,"0.47 (0.04, 0.90) p = 0.034"
same,"NABT MTR, treatment difference (95% CI)",subjects with RRMS; Baseline to Month 24,"0.50 (0.10, 0.89) p = 0.015"
same,"WM MTR, treatment difference (95% CI)",subjects with RRMS; Baseline to Month 24,"0.53 (0.13, 0.94) p = 0.011"
same,"Average MTR of T2 lesions, LS mean (SE) change",subjects with RRMS; Month 12 to Month 24,0.07 (0.24)
same,"GM MTR, LS mean (SE) change",subjects with RRMS; Month 12 to Month 24,−0.16 (0.15)
same,"NABT MTR, LS mean (SE) change",subjects with RRMS; Month 12 to Month 24,−0.08 (0.14)
same,"WM MTR, LS mean (SE) change",subjects with RRMS; Month 12 to Month 24,−0.05 (0.13)
same,"Average MTR of T2 lesions, treatment difference (95% CI)",subjects with RRMS; Month 12 to Month 24,"0.15 (−0.51, 0.81) p = 0.651"
same,"GM MTR, treatment difference (95% CI)",subjects with RRMS; Month 12 to Month 24,"0.06 (−0.37, 0.49) p = 0.787"
same,"NABT MTR, treatment difference (95% CI)",subjects with RRMS; Month 12 to Month 24,"0.10 (−0.31, 0.50) p = 0.642"
same,"WM MTR, treatment difference (95% CI)",subjects with RRMS; Month 12 to Month 24,"0.13 (−0.24, 0.51) p = 0.486"

# Source: US20160296511A1, “LAQUINIMOD FOR REDUCING THALAMIC DAMAGE IN MULTIPLE SCLEROSIS” (Teva Pharmaceutical Industries, Ltd., priority 2012, published 2016)
